Assay results taken from publication PMC5053523, “In Vitro Antibacterial Activity of Rhodanine Derivatives against Pathogenic Clinical Isolates” (PLoS ONE, 2016).
Read-outs that look alike come from different tables or passages of the source.

Tests used:
[1] = tested on: vancomycin resistant enterococci (VRE) E. faecalis; test: Broth microdilution MIC/MBC, VRE E. faecalis; format: cell-based; settings: for MIC: read-out: MIC
[2] = tested on: vancomycin resistant enterococci (VRE) E. faecium; test: Broth microdilution MIC/MBC, VRE E. faecium; format: cell-based; settings: for MIC: read-out: MIC
B. cereus = test: Broth microdilution MIC/MBC, B. cereus; format: cell-based; settings: Bacillus cereus; for MBC: read-out: MBC; for MIC: read-out: MIC
Excerpt: The broth microdilution technique was used, followed by subculturing on agar plates that were rhodanine—free.

Mycobacterium smegmatis = test: Broth microdilution MIC/MBC, Mycobacterium smegmatis; format: cell-based; settings: Mycolicibacterium smegmatis, ATCC14468, M. Smegmatis ATCC 14468
[3] = tested on: established methicillin-resistant S. epidermidis biofilm (ATCC 35984, NRS 101); test: Microtiter dish biofilm eradication assay (crystal violet); format: cell-based, Staphylococcus epidermidis; settings: high concentrations (up to 8 X MIC), 24 h
Procedure: We used S. epidermidis ATCC 35984 (NRS 101), a high-slime producer isolated in septicemic patients, with colonized intravascular catheters from Tennessee, USA [10]. This strain is a multi-drug resistant strain, showing resistance to methicillin, erythromycin, kanamycin, gentamicin, clindamycin and trimethoprim. Briefly, an overnight culture of biofilm—producing MRSE was diluted 1:100 in a fresh medium containing 1% glucose in a 96-well tissue-culture treated plate. Bacteria were incubated at 37°C for 24 h to permit the formation of an adherent biofilm. The medium was removed and the biofilm was washed with PBS. Antibacterial drugs (vancomycin and linezolid) and rhodanine 2, at indicated concentration, were added and incubated again at 37°C for 24 h. Plates were washed again and biofilms were stained with 0.1% (wt/vol) crystal violet. Plates were washed with PBS, air-dried and biofilm mass was dissolved using 95% ethanol. The intensity of crystal violet was measured using a micro plate reader (SpectraMax i3x; Molecular Devices, Sunnyvale, CA, USA). Data are presented as the percent biofilm mass reduction in treated groups in relation to untreated wells.

Acinetobacter baumannii = test: MIC with/without sub-MIC colistin, Acinetobacter baumannii; format: cell-based
Summary of the method: (§1)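 Read-out is the MIC, determined with sub-inhibitory colistin or polymixin B nonapeptide co-applied to permeabilize the outer membrane of Gram-negative bacteria.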

Klebsiella pneumoniae = test: MIC with/without sub-MIC colistin, Klebsiella pneumoniae; format: cell-based
Summary of the method: as §1

Escherichia coli Δ acrAB = test: MIC against E. coli 1411 and AcrAB efflux pump deficient E. coli SM1411Δ acrAB; format: cell-based
Summary of the method: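 Sub-MIC colistin or PMBN added to broth MIC tests of rhodanines and reference antibiotics against Gram-negative strains; AcrAB efflux-deficient E. coli SM1411ΔacrAB also tested.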

[4] = E. faecalis NR31972 Strain SF 28073
[5] = E. faecium HM 968 Strain ERV102
[6] = E. faecium NR31914 Strain E0120
[7] = E. faecium Patient #1–1 NR-31903
[8] = NRS201, B. cereus NRS 201 NR-2488

CC(=O)NC[C@H]1CN(c2ccc(N3CCOCC3)c(F)c2)C(=O)O1 [Linezolid, linezolid, reference compound]
> 64 µM: MBC ([1]; E. faecalis ERV103 HM-934) | MBC ([1]; E. faecalis TX0104 HM-201) | MBC ([2]; E. faecium E417 HM-965) | MBC ([2]; E. faecium E1071 NR-28978) | MBC [2, 5] | MBC [2, 6] | MBC [2, 7] | MIC (Escherichia coli Δ acrAB; E.coli 1411)
not significantly decreased: biofilm mass reduction [3]
32 µM: MBC [1, 4] | MBC ([1]; E. faecalis R712 HM-335)
> 128 µM: MIC (Acinetobacter baumannii; Acinetobacter baumannii, ATCCBAA747) | MIC (Acinetobacter baumannii; Acinetobacter baumannii, ATCCBAA19606) | MIC (Klebsiella pneumoniae; Klebsiella pneumoniae, BAA2146)
2 µM: MIC ([1]; E. faecalis ERV103 HM-934) | MIC [1, 4] | MIC ([1]; E. faecalis R712 HM-335) | MIC ([1]; E. faecalis S613 HM-334) | MIC ([1]; E. faecalis TX0104 HM-201) | MIC ([2]; E. faecium E417 HM-965) | MIC ([2]; E. faecium E1071 NR-28978) | MIC [2, 5] | MIC [2, 6] | MBC (B. cereus; B. cereus BAG1O-2 NR-28582) | MIC (B. cereus; B. cereus BAG1O-2 NR-28582) | MBC (B. cereus; B. cereus BAG1X2-1 NR-28578) | MIC (B. cereus; B. cereus VD014 NR-22141) | MBC (B. cereus; B. cereus VD148 NR-22150) | MIC (B. cereus; B. cereus VD148 NR-22150) | MIC (B. cereus; [8])
4 µM: MBC (B. cereus; B. cereus VD014 NR-22141) | MBC (B. cereus; [8]) | MIC (Mycobacterium smegmatis; read-out: MIC)
< 0.5 µM: MIC (B. cereus; B. cereus BAG1X1-1 NR-28575) | MIC (B. cereus; B. cereus VD115 NR-22148)
16 µM: MIC [2, 7] | MIC (Escherichia coli Δ acrAB; E.coli 1411 SM (Δ acrAB, AcrAB efflux pump deficient))
8 µM: MBC (Mycobacterium smegmatis; read-out: MBC)
64 µM: MBC ([1]; E. faecalis S613 HM-334)
1 µM: MBC (B. cereus; B. cereus BAG1X1-1 NR-28575) | MIC (B. cereus; B. cereus BAG1X2-1 NR-28578) | MBC (B. cereus; B. cereus G9241 NR-9564) | MIC (B. cereus; B. cereus G9241 NR-9564) | MBC (B. cereus; B. cereus VD115 NR-22148)
>64 µM: MIC (Acinetobacter baumannii; Acinetobacter baumannii ATCC BAA747, colistin (+) […], read-out: MIC) | MIC (Acinetobacter baumannii; Acinetobacter baumannii ATCC BAA19606, colistin (+) […], read-out: MIC) | MIC (Klebsiella pneumoniae; Klebsiella pneumoniae ATCC BAA 2146, colistin (+) […])
